Five substances from patent US6943034B1, “Combinatorial strategies for polymer synthesis” (Affymetrix, Inc., priority 1991, dated 2005) can be followed below.

The subject of one data set is Herz antibody 3E7. Kind of data set: staining of substrate-bound peptide array with FITC-labelled antibodies, fluorescence intensity. The settings on record: for overall intensity ratios YGGFL:YpGFL:pGGFL:ppGFL: fluorescence intensity of all sites on the slide after staining with FITC-labelled Herz antibody 3E7, ratio relative to ppGFL = 1.0; for fluorescence intensity of peptide sites (FIG. 19): slide stained with FITC-labelled Herz antibody 3E7, result in words. The data set is classed as binding. From the text: The system was used to synthesize four distinct peptides: YGGFL (SEQ ID NO:1), YpGFL (SEQ ID NO:2), pGGFL (SEQ ID NO:3), and ppGFL (SEQ ID NO:6) (the abbreviations are included in Stryer, Biochemistry, Third Ed. (1988), previously incorporated herein by reference; lower case letters indicate D-optical isomers and upper case letters indicate L-optical isomers). An entire glass substrate was derivatized with TBOC-protected aminopropyltriethoxysilane, deprotected with TFA, coated with FMOC-protected caproic acid (a linker), deprotected with piperidine, and coated with FMOC-protected Glycine-Phenylalanine-Leucine (GFL).
This FMOC-GFL-coated slide was sealed to the channel block, and all 10 grooves were deprotected with piperdine in DMF. After washing the grooves, FMOC Glycine (G) was injected in the odd grooves, and FMOC d-Proline (p) was injected in the even grooves. After a two-hour coupling time, using standard coupling chemistry, all grooves were washed with DMF. The grooves were vacuum dried, the block removed and rotated 90 degrees. After resealing, all grooves were deprotected with piperdine in DMF and washed. FMOC Tyrosine (Y) was injected in the odd grooves, and FMOC p in the even grooves. After coupling the grooves were washed and vacuum dried. Accordingly, 25 regions of each of the compounds YGGFL (SEQ ID NO:1), YpGFL (SEQ ID NO:2), pGGFL (SEQ ID NO:3), and ppGFL (SEQ ID NO:6) were synthesized on the substrate. The substrate was removed and stained with FITC-labelled antibodies (Herz antibody 3E7).

Data set [1] has as its system complementary base sequence 5′GCGTCGGC-F (SEQ ID NO:5). Put plainly: Channel Matrix Hybridization Assay. The data set is classed as binding. The note with it: 10 nM target, 15° C., one hour; scanned in 6× SSPE buffer; result in words. From the text:
A center region of a two by three inch slide was derivatized with bis(2-Hydroxyethyl) aminopropyltriethoxy silane. Six nucleosides were then coupled to the entire reaction region using a synthesis process consisting of deprotection, coupling, and oxidation steps for each monomer applied. These first six nucleosides were coupled in a reaction region defined by a 0.84 inch diameter circular well in an aluminum template clamped to the two by three inch slide.
The seventh and eighth monomers were applied to the substrate by flowing monomer solutions through 100 micron channels in an etched silicon channel block (employed in Example C above). The seventh base was coupled along the long axis (vertical) of the two-inch by three-inch slide, and the eighth base perpendicular to the seventh, along the short axis (horizontal) of the slide. This defined an active matrix region of 1.28 by 1.28 cm having a density of 2,500 reaction regions per square centimeter.
The complete octamer synthesized at the channel intersections formed by the seventh and eighth coupling steps had the following sequence: […]
After completion of the synthesis process, cleavage of exocyclic amines was performed by immersion of the reaction region in concentrated ammonium hydroxide. […] Finally, the reaction region was then scanned using a laser fluorescence detection system while immersed in the buffer.

Where no end group is shown, it is not given here. [ ]: non-standard residue; d: D form.

For YpGFL (Y[dP]GFL; also: substrate-bound), the “overall intensity ratios YGGFL:YpGFL:pGGFL:ppGFL” value with Herz antibody 3E7 is recorded as 1.5.
For YGGFL, in the data set with Herz antibody 3E7, the “overall intensity ratios YGGFL:YpGFL:pGGFL:ppGFL” value was 1.7 and the “fluorescence intensity of peptide sites (FIG. 19)” value (“fluorescence intensity” below) was “most intense”.
Regarding “ppGFL ([dP][dP]GFL; also: substrate-bound)”, in the data set with Herz antibody 3E7, the “overall intensity ratios YGGFL:YpGFL:pGGFL:ppGFL” value is listed as 1.0 and the “fluorescence intensity” value is “near background levels”.
With pGGFL ([dP]GGFL; also: substrate-bound), in the data set with Herz antibody 3E7, the “overall intensity ratios YGGFL:YpGFL:pGGFL:ppGFL” value worked out at 1.1 and the “fluorescence intensity” value is recorded as “near background levels”.
On to “Substrate—(3′)CGCAGCCG(5′) [full octamer]”, for which the “brightness (fluorescence) indicating hybridization with fluoresceinated target chain (FIG. 21)” value in data set [1] is reported as “brightest regions”.
